Experimental data reported in PubChem BioAssay (NCI).
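Step 1: Grow cells in 96-well plates. Step 2: Expose to compound for 48 hours at 5 concentrations. Step 3: Interpolate endpoints linearly; if unreached, use highest concentration. GI50: concentration for 50% inhibition of growth. Definition used: TGI = concentration required for complete inhibition of growth.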

Legend:
Assay in all cases: DTP human tumour cell line panel, 48 h
NCI-H23 lung = tested on: NCI-H23 lung
HCT-15 colon = tested on: HCT-15 colon
SF-539 CNS = tested on: SF-539 CNS
RXF 393 renal = tested on: RXF 393 renal
MDA-MB-231 breast = tested on: MDA-MB-231 breast
PC-3 prostate = tested on: PC-3 prostate
UACC-257 melanoma = tested on: UACC-257 melanoma
RPMI-8226 leukemia = tested on: RPMI-8226 leukemia
HCT-116 colon = tested on: HCT-116 colon
T-47D breast = tested on: T-47D breast
A549 NSCLC = tested on: A549 NSCLC
U251 CNS = tested on: U251 CNS
OVCAR-8 ovarian = tested on: OVCAR-8 ovarian
CCRF-CEM leukemia = tested on: CCRF-CEM leukemia
EKVX NSCLC = tested on: EKVX NSCLC
KM12 colon = tested on: KM12 colon
BT-549 breast = tested on: BT-549 breast
M14 melanoma = tested on: M14 melanoma
MDA-MB-435 = tested on: MDA-MB-435
SK-MEL-28 melanoma = tested on: SK-MEL-28 melanoma
LOX IMVI melanoma = tested on: LOX IMVI melanoma
IGROV1 ovarian = tested on: IGROV1 ovarian
SK-OV-3 ovarian = tested on: SK-OV-3 ovarian
SF-295 CNS = tested on: SF-295 CNS
HS 578T breast = tested on: HS 578T breast
SK-MEL-5 melanoma = tested on: SK-MEL-5 melanoma
SF-268 CNS = tested on: SF-268 CNS
SW-620 colon = tested on: SW-620 colon
NCI-H460 lung = tested on: NCI-H460 lung
SN12C renal = tested on: SN12C renal
SR leukemia = tested on: SR leukemia
NCI-H226 lung = tested on: NCI-H226 lung
A498 renal = tested on: A498 renal
HOP-92 NSCLC = tested on: HOP-92 NSCLC
SK-MEL-2 melanoma = tested on: SK-MEL-2 melanoma
CAKI-1 renal = tested on: CAKI-1 renal
OVCAR-4 ovarian = tested on: OVCAR-4 ovarian
UACC-62 melanoma = tested on: UACC-62 melanoma
MCF7 breast = tested on: MCF7 breast
K-562 leukemia = tested on: K-562 leukemia
OVCAR-3 ovarian = tested on: OVCAR-3 ovarian
NCI-H522 lung = tested on: NCI-H522 lung
SNB-75 CNS = tested on: SNB-75 CNS
SNB-19 CNS = tested on: SNB-19 CNS
UO-31 renal = tested on: UO-31 renal
786-0 renal = tested on: 786-0 renal
HL-60(TB) leukemia = tested on: HL-60(TB) leukemia
HT29 colon = tested on: HT29 colon
HCC-2998 colon = tested on: HCC-2998 colon
COLO 205 colon = tested on: COLO 205 colon
HOP-62 NSCLC = tested on: HOP-62 NSCLC
NCI/ADR-RES ovarian = tested on: NCI/ADR-RES ovarian
ACHN renal = tested on: ACHN renal
DU-145 prostate = tested on: DU-145 prostate
MOLT-4 leukemia = tested on: MOLT-4 leukemia
TK-10 renal = tested on: TK-10 renal
MALME-3M melanoma = tested on: MALME-3M melanoma
OVCAR-5 ovarian = tested on: OVCAR-5 ovarian

Compound: CCOC(=O)/C=C\[C@H]1OC(C)(C)O[C@H]1[C@H](O)[C@H]1COC(C)(C)O1
- TGI (NCI-H23 lung): 50100 nM
- TGI (HCT-15 colon): 33100 nM
- TGI (SF-539 CNS): 32100 nM
- TGI (RXF 393 renal): 35000 nM
- TGI (MDA-MB-231 breast): 33900 nM
- TGI (PC-3 prostate): 37600 nM
- TGI (UACC-257 melanoma): 55500 nM
- TGI (RPMI-8226 leukemia): 42300 nM
- TGI (HCT-116 colon): 39000 nM
- TGI (T-47D breast): 46700 nM
- TGI (A549 NSCLC): > 100000 nM
- TGI (U251 CNS): 32600 nM
- TGI (OVCAR-8 ovarian): > 100000 nM
- TGI (CCRF-CEM leukemia): 39000 nM
- TGI (EKVX NSCLC): 50100 nM
- TGI (KM12 colon): > 100000 nM
- TGI (BT-549 breast): 42200 nM
- TGI (M14 melanoma): 33000 nM
- TGI (MDA-MB-435): 35000 nM
- TGI (SK-MEL-28 melanoma): 35600 nM
- TGI (LOX IMVI melanoma): 39900 nM
- TGI (IGROV1 ovarian): 37700 nM
- TGI (SK-OV-3 ovarian): > 100000 nM
- TGI (SF-295 CNS): > 100000 nM
- TGI (HS 578T breast): 93200 nM
- TGI (SK-MEL-5 melanoma): 33500 nM
- TGI (SF-268 CNS): 72600 nM
- TGI (SW-620 colon): 36800 nM
- TGI (NCI-H460 lung): > 100000 nM
- TGI (SN12C renal): 33500 nM
- TGI (SR leukemia): 37200 nM
- TGI (NCI-H226 lung): > 100000 nM
- TGI (A498 renal): 37600 nM
- TGI (HOP-92 NSCLC): 31300 nM
- TGI (SK-MEL-2 melanoma): 52400 nM
- TGI (CAKI-1 renal): 7880 nM
- TGI (OVCAR-4 ovarian): 46500 nM
- TGI (UACC-62 melanoma): 60700 nM
- TGI (MCF7 breast): 40700 nM
- TGI (K-562 leukemia): 44700 nM
- TGI (OVCAR-3 ovarian): 32200 nM
- TGI (NCI-H522 lung): 29700 nM
- TGI (SNB-75 CNS): 13300 nM
- TGI (SNB-19 CNS): > 100000 nM
- TGI (UO-31 renal): 34400 nM
- TGI (786-0 renal): 39200 nM
- TGI (HL-60(TB) leukemia): 62400 nM
- TGI (HT29 colon): 46100 nM
- TGI (HCC-2998 colon): 28600 nM
- TGI (COLO 205 colon): 32300 nM
- TGI (HOP-62 NSCLC): > 100000 nM
- TGI (NCI/ADR-RES ovarian): > 100000 nM
- TGI (ACHN renal): 32600 nM
- TGI (DU-145 prostate): > 100000 nM
- TGI (MOLT-4 leukemia): 40500 nM
- TGI (TK-10 renal): 30800 nM
- TGI (MALME-3M melanoma): 41700 nM
- TGI (OVCAR-5 ovarian): 32600 nM

Compound: COc1ccc2[nH]c(C(=O)N3CCN(C(=O)OCc4ccc5c(Br)cc(Br)c(O)c5n4)CC3)cc2c1
- GI50 (NCI-H23 lung): 1480 nM
- TGI (NCI-H23 lung): 3150 nM
- GI50 (HCT-15 colon): 219 nM
- TGI (HCT-15 colon): 596 nM
- GI50 (SF-539 CNS): 926 nM
- TGI (SF-539 CNS): 2250 nM
- GI50 (RXF 393 renal): 208 nM
- TGI (RXF 393 renal): 575 nM
- GI50 (MDA-MB-231 breast): 388 nM
- TGI (MDA-MB-231 breast): 1390 nM
- GI50 (PC-3 prostate): 442 nM
- TGI (PC-3 prostate): 1500 nM
- GI50 (UACC-257 melanoma): 447 nM
- TGI (UACC-257 melanoma): 1400 nM
- GI50 (RPMI-8226 leukemia): 243 nM
- TGI (RPMI-8226 leukemia): 809 nM
- GI50 (HCT-116 colon): 178 nM
- TGI (HCT-116 colon): 393 nM
- GI50 (T-47D breast): 1350 nM
- TGI (T-47D breast): 4460 nM
- GI50 (A549 NSCLC): 1680 nM
- TGI (A549 NSCLC): 3590 nM
- GI50 (U251 CNS): 1290 nM
- TGI (U251 CNS): 2590 nM
- GI50 (OVCAR-8 ovarian): 277 nM
- TGI (OVCAR-8 ovarian): 857 nM
- GI50 (CCRF-CEM leukemia): 238 nM
- TGI (CCRF-CEM leukemia): 1630 nM
- GI50 (EKVX NSCLC): 1370 nM
- TGI (EKVX NSCLC): 2930 nM
- GI50 (KM12 colon): 1370 nM
- TGI (KM12 colon): 2830 nM
- GI50 (BT-549 breast): 213 nM
- TGI (BT-549 breast): 585 nM
- GI50 (M14 melanoma): 262 nM
- TGI (M14 melanoma): 753 nM
- GI50 (MDA-MB-435): 258 nM
- TGI (MDA-MB-435): 695 nM
- GI50 (SK-MEL-28 melanoma): 448 nM
- TGI (SK-MEL-28 melanoma): 1510 nM
- GI50 (LOX IMVI melanoma): 172 nM
- TGI (LOX IMVI melanoma): 334 nM
- GI50 (IGROV1 ovarian): 368 nM
- TGI (IGROV1 ovarian): 1360 nM
- GI50 (SK-OV-3 ovarian): 1870 nM
- TGI (SK-OV-3 ovarian): 3390 nM
- GI50 (SF-295 CNS): 1610 nM
- TGI (SF-295 CNS): 3030 nM
- GI50 (HS 578T breast): 1050 nM
- TGI (HS 578T breast): 4290 nM
- GI50 (SK-MEL-5 melanoma): 620 nM
- TGI (SK-MEL-5 melanoma): 1770 nM
- GI50 (SF-268 CNS): 1200 nM
- TGI (SF-268 CNS): 2740 nM
- GI50 (SW-620 colon): 222 nM
- TGI (SW-620 colon): 507 nM
- GI50 (NCI-H460 lung): 1360 nM
- TGI (NCI-H460 lung): 3140 nM
- GI50 (SN12C renal): 313 nM
- TGI (SN12C renal): 1070 nM
- GI50 (SR leukemia): 243 nM
- TGI (SR leukemia): 1230 nM
- GI50 (NCI-H226 lung): 496 nM
- TGI (NCI-H226 lung): 1050 nM
- GI50 (A498 renal): 1580 nM
- TGI (A498 renal): 2980 nM
- GI50 (HOP-92 NSCLC): 178 nM
- TGI (HOP-92 NSCLC): 860 nM
- GI50 (SK-MEL-2 melanoma): 577 nM
- TGI (SK-MEL-2 melanoma): 1550 nM
- GI50 (CAKI-1 renal): 244 nM
- TGI (CAKI-1 renal): 749 nM
- GI50 (OVCAR-4 ovarian): 302 nM
- TGI (OVCAR-4 ovarian): 972 nM
- GI50 (UACC-62 melanoma): 258 nM
- TGI (UACC-62 melanoma): 749 nM
- GI50 (MCF7 breast): 262 nM
- TGI (MCF7 breast): 1180 nM
- GI50 (K-562 leukemia): 294 nM
- TGI (K-562 leukemia): 978 nM
- GI50 (OVCAR-3 ovarian): 197 nM
- TGI (OVCAR-3 ovarian): 427 nM
- GI50 (NCI-H522 lung): 206 nM
- TGI (NCI-H522 lung): 546 nM
- GI50 (SNB-75 CNS): 735 nM
- TGI (SNB-75 CNS): 2160 nM
- GI50 (SNB-19 CNS): 1460 nM
- TGI (SNB-19 CNS): 2830 nM
- GI50 (UO-31 renal): 153 nM
- TGI (UO-31 renal): 323 nM
- GI50 (786-0 renal): 270 nM
- TGI (786-0 renal): 759 nM
- GI50 (HL-60(TB) leukemia): 318 nM
- TGI (HL-60(TB) leukemia): 1140 nM
- GI50 (HT29 colon): 318 nM
- TGI (HT29 colon): 1030 nM
- GI50 (HCC-2998 colon): 898 nM
- TGI (HCC-2998 colon): 2390 nM
- GI50 (COLO 205 colon): 193 nM
- TGI (COLO 205 colon): 426 nM
- GI50 (HOP-62 NSCLC): 1590 nM
- TGI (HOP-62 NSCLC): 3660 nM
- GI50 (NCI/ADR-RES ovarian): 336 nM
- TGI (NCI/ADR-RES ovarian): 1760 nM
- GI50 (ACHN renal): 170 nM
- TGI (ACHN renal): 335 nM
- GI50 (DU-145 prostate): 396 nM
- TGI (DU-145 prostate): 1370 nM
- GI50 (MOLT-4 leukemia): 298 nM
- TGI (MOLT-4 leukemia): 966 nM
- GI50 (TK-10 renal): 306 nM
- TGI (TK-10 renal): 1010 nM
- GI50 (MALME-3M melanoma): 1020 nM
- TGI (MALME-3M melanoma): 2370 nM
- GI50 (OVCAR-5 ovarian): 603 nM
- TGI (OVCAR-5 ovarian): 1980 nM
